Source: US20090304692A1, “TRIAZINE COMPOUNDS AS PI3 KINASE AND MTOR INHIBITORS” (Wyeth, priority 2008, published 2009)
Like-named read-outs stand apart in the source and are kept apart here.

Legend:
[1] = molecular target: Human mTOR (FLAG-TOR) (Homo sapiens, UniProt P42345); assay: mTOR kinase assay (DELFIA format, purified enzyme); type: biochemical; conditions: read-out: IC50 mTOR
[2] = molecular target: PI3K-α (Homo sapiens, UniProt P42336); assay: PI3K-alpha fluorescence polarization assay; conditions: read-out: IC50 PI3Kα
Sequence of PI3K-α (P42336 whole entry, species assumed): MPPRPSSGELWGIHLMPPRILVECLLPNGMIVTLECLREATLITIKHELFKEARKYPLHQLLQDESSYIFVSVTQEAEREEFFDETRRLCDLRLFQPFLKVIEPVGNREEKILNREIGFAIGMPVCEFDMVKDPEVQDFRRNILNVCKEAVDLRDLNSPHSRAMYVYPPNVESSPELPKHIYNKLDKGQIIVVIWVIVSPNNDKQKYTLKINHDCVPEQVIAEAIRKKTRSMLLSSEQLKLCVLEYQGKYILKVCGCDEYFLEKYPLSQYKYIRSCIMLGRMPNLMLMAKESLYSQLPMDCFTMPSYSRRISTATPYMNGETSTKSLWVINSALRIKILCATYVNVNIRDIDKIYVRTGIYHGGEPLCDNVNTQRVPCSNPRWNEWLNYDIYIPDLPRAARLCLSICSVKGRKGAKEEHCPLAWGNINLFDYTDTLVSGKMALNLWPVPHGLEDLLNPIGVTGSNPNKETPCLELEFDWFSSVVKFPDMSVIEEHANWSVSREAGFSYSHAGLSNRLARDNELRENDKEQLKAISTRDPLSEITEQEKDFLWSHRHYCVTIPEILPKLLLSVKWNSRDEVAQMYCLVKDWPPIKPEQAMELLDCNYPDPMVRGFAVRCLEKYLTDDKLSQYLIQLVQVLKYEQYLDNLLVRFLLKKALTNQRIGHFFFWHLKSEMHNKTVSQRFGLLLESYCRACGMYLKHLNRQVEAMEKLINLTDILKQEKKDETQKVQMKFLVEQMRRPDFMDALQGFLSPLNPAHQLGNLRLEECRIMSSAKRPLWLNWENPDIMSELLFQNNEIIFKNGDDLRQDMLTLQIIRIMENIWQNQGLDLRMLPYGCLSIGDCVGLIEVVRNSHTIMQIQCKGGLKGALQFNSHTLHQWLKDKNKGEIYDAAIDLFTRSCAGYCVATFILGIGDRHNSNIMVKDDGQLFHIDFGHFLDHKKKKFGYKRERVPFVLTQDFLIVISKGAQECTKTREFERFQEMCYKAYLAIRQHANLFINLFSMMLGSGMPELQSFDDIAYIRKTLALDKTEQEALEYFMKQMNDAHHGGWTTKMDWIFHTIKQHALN
Sequence of PI3K-α (P27986 whole entry partner, species assumed): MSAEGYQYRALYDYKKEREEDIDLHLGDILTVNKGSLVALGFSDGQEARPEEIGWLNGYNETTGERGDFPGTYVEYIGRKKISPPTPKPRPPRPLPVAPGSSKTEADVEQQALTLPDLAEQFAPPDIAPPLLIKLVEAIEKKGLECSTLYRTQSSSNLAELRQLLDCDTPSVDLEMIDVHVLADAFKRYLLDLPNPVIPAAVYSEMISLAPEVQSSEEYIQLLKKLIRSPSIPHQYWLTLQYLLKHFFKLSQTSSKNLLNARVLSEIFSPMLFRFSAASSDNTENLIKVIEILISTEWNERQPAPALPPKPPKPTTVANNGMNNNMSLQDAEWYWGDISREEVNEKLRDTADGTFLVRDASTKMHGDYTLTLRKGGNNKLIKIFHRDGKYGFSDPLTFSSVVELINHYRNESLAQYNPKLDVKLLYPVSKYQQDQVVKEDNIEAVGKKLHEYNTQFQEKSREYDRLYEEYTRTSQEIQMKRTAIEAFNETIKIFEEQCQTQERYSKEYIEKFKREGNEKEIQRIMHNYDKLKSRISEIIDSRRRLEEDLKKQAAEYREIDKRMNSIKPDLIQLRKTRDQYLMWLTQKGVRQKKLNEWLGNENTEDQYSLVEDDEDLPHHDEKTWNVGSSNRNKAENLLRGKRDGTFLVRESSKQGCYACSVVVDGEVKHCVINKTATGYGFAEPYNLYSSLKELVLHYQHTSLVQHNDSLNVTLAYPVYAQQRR

[3] = molecular target: PI3K-γ (Homo sapiens, UniProt P48736); assay: PI3K-gamma fluorescence polarization assay; conditions: read-out: IC50 PI3Kγ
Sequence of PI3K-γ (P48736 whole entry, species assumed): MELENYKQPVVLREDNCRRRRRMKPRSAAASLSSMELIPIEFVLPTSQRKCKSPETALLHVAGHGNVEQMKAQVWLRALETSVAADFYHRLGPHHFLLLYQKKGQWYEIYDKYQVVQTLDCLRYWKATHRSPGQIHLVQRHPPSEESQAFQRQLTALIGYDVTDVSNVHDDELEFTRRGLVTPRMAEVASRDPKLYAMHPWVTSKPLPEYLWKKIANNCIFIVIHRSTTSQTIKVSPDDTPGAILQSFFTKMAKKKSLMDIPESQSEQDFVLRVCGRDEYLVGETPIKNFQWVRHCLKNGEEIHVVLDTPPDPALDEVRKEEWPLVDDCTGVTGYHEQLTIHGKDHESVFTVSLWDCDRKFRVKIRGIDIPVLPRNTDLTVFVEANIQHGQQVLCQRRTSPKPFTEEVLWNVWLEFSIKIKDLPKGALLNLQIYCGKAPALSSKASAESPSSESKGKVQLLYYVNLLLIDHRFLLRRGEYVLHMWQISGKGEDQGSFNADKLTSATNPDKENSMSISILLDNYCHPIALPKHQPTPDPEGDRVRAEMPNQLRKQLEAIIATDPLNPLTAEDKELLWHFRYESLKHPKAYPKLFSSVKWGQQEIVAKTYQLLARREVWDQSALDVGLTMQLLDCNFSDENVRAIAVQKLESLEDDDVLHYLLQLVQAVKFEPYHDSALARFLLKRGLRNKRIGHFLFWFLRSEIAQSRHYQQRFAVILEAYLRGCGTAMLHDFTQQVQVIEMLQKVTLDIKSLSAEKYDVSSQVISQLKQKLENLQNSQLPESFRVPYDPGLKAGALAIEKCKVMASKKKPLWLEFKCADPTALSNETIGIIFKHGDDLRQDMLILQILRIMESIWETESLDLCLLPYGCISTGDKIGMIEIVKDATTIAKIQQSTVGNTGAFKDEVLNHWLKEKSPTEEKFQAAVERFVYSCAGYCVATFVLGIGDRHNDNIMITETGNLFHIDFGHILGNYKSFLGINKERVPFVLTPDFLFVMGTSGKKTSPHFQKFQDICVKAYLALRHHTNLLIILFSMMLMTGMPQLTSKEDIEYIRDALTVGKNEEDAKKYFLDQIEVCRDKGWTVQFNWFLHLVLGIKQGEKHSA

[4] = tested on: human prostate PC3-mm2 tumor cell line; assay: In vitro cell culture growth assay (MTS), PC3-mm2; type: cell-based; conditions: Homo sapiens, PC3MM2, 72 h, MTS cell growth assay, three days after drug treatment, read-out: IC50 PC3-mm2
[5] = tested on: human breast MDA-MB-361 tumor cell line; assay: In vitro cell culture growth assay (MTS), MDA-MB-361; type: cell-based; conditions: Homo sapiens, MTS cell growth assay, three days after drug treatment, read-out: IC50 MDA-MB-361
[6] = MDA-MB-361, 72 h, MDA-MB-361 cells

Sequence of Human mTOR (FLAG-TOR) (P42345 1360-2549 limits assumed): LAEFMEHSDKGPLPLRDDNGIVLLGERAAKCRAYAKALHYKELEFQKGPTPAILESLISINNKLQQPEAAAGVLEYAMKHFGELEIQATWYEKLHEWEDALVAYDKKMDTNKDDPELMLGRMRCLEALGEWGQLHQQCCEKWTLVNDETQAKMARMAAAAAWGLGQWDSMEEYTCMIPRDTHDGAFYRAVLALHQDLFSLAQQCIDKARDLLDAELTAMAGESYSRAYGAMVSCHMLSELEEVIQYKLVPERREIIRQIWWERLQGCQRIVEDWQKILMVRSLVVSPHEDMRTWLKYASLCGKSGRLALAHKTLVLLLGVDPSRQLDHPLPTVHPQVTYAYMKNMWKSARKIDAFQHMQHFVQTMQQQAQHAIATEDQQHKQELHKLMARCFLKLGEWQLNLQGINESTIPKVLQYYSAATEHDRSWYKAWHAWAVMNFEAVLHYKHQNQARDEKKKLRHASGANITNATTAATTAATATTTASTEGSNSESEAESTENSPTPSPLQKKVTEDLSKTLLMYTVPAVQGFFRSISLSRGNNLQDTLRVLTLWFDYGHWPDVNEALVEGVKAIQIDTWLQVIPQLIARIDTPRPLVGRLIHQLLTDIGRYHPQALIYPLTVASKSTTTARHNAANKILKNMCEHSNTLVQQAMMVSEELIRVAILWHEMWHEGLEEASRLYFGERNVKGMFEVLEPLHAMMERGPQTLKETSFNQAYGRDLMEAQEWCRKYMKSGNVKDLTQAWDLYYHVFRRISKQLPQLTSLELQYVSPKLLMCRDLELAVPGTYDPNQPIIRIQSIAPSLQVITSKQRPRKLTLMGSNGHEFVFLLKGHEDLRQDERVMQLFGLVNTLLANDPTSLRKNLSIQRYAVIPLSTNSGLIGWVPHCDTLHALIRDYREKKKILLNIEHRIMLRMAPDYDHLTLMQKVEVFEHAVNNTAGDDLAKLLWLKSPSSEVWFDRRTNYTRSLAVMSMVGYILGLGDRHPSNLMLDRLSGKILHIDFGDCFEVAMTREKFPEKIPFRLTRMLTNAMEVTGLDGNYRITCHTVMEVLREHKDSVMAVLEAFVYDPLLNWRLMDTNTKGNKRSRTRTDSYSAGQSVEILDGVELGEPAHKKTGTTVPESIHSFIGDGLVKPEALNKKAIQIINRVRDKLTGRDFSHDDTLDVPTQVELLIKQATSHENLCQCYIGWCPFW

| SMILES | IC50 [1] [nM] | IC50 [2] [nM] | IC50 [3] [nM] | IC50 [4] [nM] | IC50 ([5]; MDA-MB-361, 72 h) [nM] | IC50 ([4]; PC3-mm2 cells) [nM] | IC50 [5, 6] [nM] | IC50 ([5]; 72 h, MDA-MB-361 cells) [nM] |
| --- | --- | --- | --- | --- | --- | --- | --- | --- |
| CCCCc1nc(-c2ccc(NC(=O)Nc3ccc(C(=O)N4CCC(Cc5ccccc5)CC4)cc3)cc2)nc(N2CCOCC2)n1 [Example 270, 1-{4-[(4-benzylpiperidin-1-yl)carbonyl]phenyl}-3-[4-(4-butyl-6-morpholin-4-yl-1,3,5-triazin-2-yl)phenyl]urea] | 160 | 68 | 318 | 953 | 397 | – | – | – |
| CN1CCN(C(=O)c2ccc(NC(=O)Nc3ccc(-c4nc(-c5ccccc5)nc(N5CCOCC5)n4)cc3)cc2)CC1 [Example 543, 1-{4-[(4-methylpiperazin-1-yl)carbonyl]phenyl}-3-[4-(4-morpholin-4-yl-6-phenyl-1,3,5-triazin-2-yl)phenyl]urea] | 42 | 3.5 | 15.5 | – | – | 262 | < 31 | – |
| CC(C)(C)OC(=O)N1CCC(Oc2nc(-c3ccc(NC(=O)Nc4ccncc4)cc3)nc(N3CCOCC3)n2)CC1 [Example 691, tert-butyl 4-[(4-morpholin-4-yl-6-{4-[(pyridin-4-ylcarbamoyl)amino]phenyl}-1,3,5-triazin-2-yl)oxy]piperidine-1-carboxylate] | 1.35 | 6 | 199 | – | – | 131 | – | 52 |
| CC(C)(C)OC(=O)N1CC(Nc2nc(-c3ccc(NC(=O)Nc4ccccc4)cc3)nc(N3CCOCC3)n2)C1 [Example 14, tert-butyl 3-[(4-morpholin-4-yl-6-{4-[(phenylcarbamoyl)amino]phenyl}-1,3,5-triazin-2-yl)amino]azetidine-1-carboxylate] | 8.45 | 25 | 154 | 590 | 376 | – | – | – |
| CCN1CCN(C(=O)c2ccc(NC(=O)Nc3ccc(-c4nc(N5CCOCC5)nc(N5CCOC[C@@H]5C)n4)cc3)cc2)CC1 [Example 620, 1-{4-[(4-ethylpiperazin-1-yl)carbonyl]phenyl}-3-(4-{4-[(3S)-3-methylmorpholin-4-yl]-6-morpholin-4-yl-1,3,5-triazin-2-yl}phenyl)urea] | 3 | 4 | 32.5 | – | – | 16 | 4 | – |
| CN(C)C(=O)N1CCN(c2nc(-c3ccc(NC(=O)Nc4ccc(C(=O)O)cc4)cc3)nc(N3CCOCC3)n2)CC1 [Example 646, 4-{[(4-{4-[4-(dimethylcarbamoyl)piperazin-1-yl]-6-morpholin-4-yl-1,3,5-triazin-2-yl}phenyl)carbamoyl]amino}benzoic acid] | 6 | 23 | 85.5 | – | – | 223 | 32 | – |
| C[C@H]1COCCN1c1nc(-c2ccc(NC(=O)Nc3ccc(C(=O)NCCN(C)C)cc3)cc2)nc(N2CCOC[C@@H]2C)n1 [Example 546, 4-{[(4-{4,6-bis[(3S)-3-methylmorpholin-4-yl]-1,3,5-triazin-2-yl}phenyl)carbamoyl]amino}-N-[2-(dimethylamino)ethyl]benzamide] | 0.225 | 3.5 | 73.5 | – | – | 25 | – | 7 |
| CN1CCC(Oc2nc(-c3ccc(NC(=O)Nc4ccncc4)cc3)nc(N3CCOCC3)n2)CC1 [Example 687, 1-(4-{4-[(1-methylpiperidin-4-yl)oxy]-6-morpholin-4-yl-1,3,5-triazin-2-yl}phenyl)-3-pyridin-4-ylurea] | 4.85 | 4 | 39.5 | – | – | 389 | – | 355 |
| CN(C)CCNC(=O)c1ccc(NC(=O)Nc2ccc(-c3nc(C4CCOCC4)nc(N4CCOCC4)n3)cc2)cc1 [Example 512, N-[2-(dimethylamino)ethyl]-4-[({4-[4-morpholin-4-yl-6-(tetrahydro-2H-pyran-4-yl)-1,3,5-triazin-2-yl]phenyl}carbamoyl)amino]benzamide] | 0.12 | < 1.9 | 10 | – | – | 8 | – | 1 |
